Columns and labels:
[1] = system: mice transplanted with mouse fibrosarcoma Meth A cells; experiment: Animal toxicity test; type: in vivo; details: intravenous days 1, 5, 9, observed three weeks
Description: Also, the toxicity of known phenanthroindolizidine alkaloid compounds, namely (12aS,13S)-6,7-dimethoxy-9,10,11,12,12a,13-hexahydro-9a-aza-cyclopenta[b]triphenylene-3,13-diol (known compound 1; refer to WO01/023384) and (12aS,13S)-3,6,7-trimethoxy-9,10,11,12,12a,13-hexahydro-9a-aza-cyclopenta[b]triphenylene-13-ol (known compound 2; refer to Planta Med., 2002, 68: 186-188), was simultaneously studied. To a control group, a physiological saline solution, a solvent, was administered. As a result, as shown in the following Tables 35 and 36, all the mice survived in a group administered with the compound of the present invention.

[2] = system: human colon cancer SW480 cells; experiment: Inhibitory action on the proliferation of SW480 cells; type: cell-based; details: 48 hours, TetraColor ONE; for IC50: Homo sapiens, SW480
Summary of the method: (§1)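 Cells seeded overnight (SW480 2000/well in 10% FBS/RPMI1640; A549, HT-29 1000/well in 10% FBS DMEM or DMEM F12 HAM), then compound-treated at 37 °C, 5% CO2 for 48 h (SW480) or 96 h (A549, HT-29). Viable cells counted by TetraColor ONE; IC50 for 50% proliferation inhibition.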

SV40 promoter = SV40 promoter activity, luciferase assay in SW480/SV40-Luc cells; type: cell-based, human; details: for SV40 promoter inhibitory activity IC50: SW480/SV40-Luc cells, luciferase; for IC50: Homo sapiens, SW480, read-out: SV40 promoter inhibitory activity IC50
Summary of the method: (§2)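 Stable SW480 colon cancer lines carried luciferase driven by a 5× NFκB response element or by the SV40 promoter. Compound was added 1 h before 50 ng/mL TNFα, followed by 4 h culture at 37 °C; luminescence was read and IC50 taken as 50% inhibition of induced luciferase expression.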

[3] = system: human non-small cell lung cancer A549 cells; experiment: Inhibitory action on the proliferation of A549 cells; type: cell-based; details: 96 hours, TetraColor ONE; for IC50: Homo sapiens, A549
Summary of the method: as §1

NFκB = experiment: Inhibitory action on the NFκB activity, luciferase assay in SW480/NRE-Luc cells; type: cell-based, human; details: for NFκB inhibitory activity IC50: SW480/NRE-Luc cells, compound 1 h then 50 ng/mL TNFα 4 h, luciferase; for IC50: Homo sapiens, SW480, read-out: NFκB inhibitory activity IC50
Summary of the method: as §2

[4] = system: human colon cancer HT-29 cells; experiment: Inhibitory action on the proliferation of HT-29 cells; type: cell-based; details: 96 hours, TetraColor ONE; for IC50: Homo sapiens, HT-29
Summary of the method: as §1

Structure (SMILES): COc1cc2c3c(c4ccc(OC(=O)N5CCC(N6CCCCC6)CC5)cc4c2cc1OC)[C@H](O)[C@@H]1CCCN1C3 [Compound 13, [1,4′]bipiperidinyl-1′-carboxylic acid(12aS,13S)-13-hydroxy-6,7-dimethoxy-9,10,11,12,12a,13-hexahydro-9a-aza-cyclopenta[b]triphenylene-3-yl ester]
- Mortality rate ([1]; total dose 25 mg/kg): 0/5
- Mortality rate ([1]; total dose 50 mg/kg): 0/5
- SW480 proliferation inhibitory action IC50 [2]: 19.5 ng/mL
- SV40 promoter inhibitory activity IC50 (SV40 promoter): >1000 ng/mL
- A549 proliferation inhibitory action IC50 [3]: 7.4 ng/mL
- NFκB inhibitory activity IC50 (NFκB): 20.3 ng/mL
- HT-29 proliferation inhibitory action IC50 [4]: 21.6 ng/mL

Structure (SMILES): COc1cc2c3c(c4ccc(OC(C)=O)cc4c2cc1OC)C(F)[C@@H]1CCCN1C3.Cl (stereo partly drawn) [Compound 14, acetic acid(S)-13-fluoro-6,7-dimethoxy-9,10,11,12,12a,13-hexahydro-9a-aza-cyclopenta[b]triphenylene-3-yl ester hydrochloride]
- Mortality rate ([1]; total dose 25 mg/kg): 0/5
- Mortality rate ([1]; total dose 50 mg/kg): 0/5
- SW480 proliferation inhibitory action IC50 [2]: 2.1 ng/mL
- SV40 promoter inhibitory activity IC50 (SV40 promoter): >100 ng/mL
- A549 proliferation inhibitory action IC50 [3]: 0.23 ng/mL
- NFκB inhibitory activity IC50 (NFκB): 1.7 ng/mL
- HT-29 proliferation inhibitory action IC50 [4]: 0.62 ng/mL

Structure (SMILES): COc1cc2c3c(c4ccc(OC(=O)c5cccs5)cc4c2cc1OC)[C@H](O)[C@@H]1CCCN1C3.Cl [Compound 19, thiophene-2-carboxylic acid(12aS,13S)-13-hydroxy-6,7-dimethoxy-9,10,11,12,12a,13-hexahydro-9a-aza-cyclopenta[b]triphenylene-3-yl ester hydrochloride]
- Mortality rate ([1]; total dose 25 mg/kg): 0/5
- Mortality rate ([1]; total dose 50 mg/kg): 0/5
- SW480 proliferation inhibitory action IC50 [2]: 1.3 ng/mL
- SV40 promoter inhibitory activity IC50 (SV40 promoter): >100 ng/mL
- A549 proliferation inhibitory action IC50 [3]: 0.82 ng/mL
- NFκB inhibitory activity IC50 (NFκB): 3.0 ng/mL
- HT-29 proliferation inhibitory action IC50 [4]: 1.69 ng/mL

Structure (SMILES): COc1cc2c3c(c4ccc(OC(=O)N(C)C)cc4c2cc1OC)[C@H](O)[C@@H]1CCCN1C3.Cl [Compound 21, dimethyl-carbamic acid(12aS,13S)-13-hydroxy-6,7-dimethoxy-9,10,11,12,12a,13-hexahydro-9a-aza-cyclopenta[b]triphenylene-3-yl ester hydrochloride]
- Mortality rate ([1]; total dose 25 mg/kg): 0/5
- Mortality rate ([1]; total dose 50 mg/kg): 0/5
- SW480 proliferation inhibitory action IC50 [2]: 38.3 ng/mL
- SV40 promoter inhibitory activity IC50 (SV40 promoter): >10000 ng/mL
- A549 proliferation inhibitory action IC50 [3]: 16.4 ng/mL
- NFκB inhibitory activity IC50 (NFκB): 23.3 ng/mL
- HT-29 proliferation inhibitory action IC50 [4]: 24.2 ng/mL

Structure (SMILES): C#CCOC(=O)Oc1ccc2c3c(c4cc(OC)c(OC)cc4c2c1)CN1CCC[C@H]1[C@H]3O.Cl [Compound 27, carbonic acid(12aS,13S)-13-hydroxy-6,7-dimethoxy-9,10,11,12,12a,13-hexahydro-9a-aza-cyclopenta[b]triphenylene-3-yl ester-propyn-2-yl ester hydrochloride]
- Mortality rate ([1]; total dose 25 mg/kg): 0/5
- Mortality rate ([1]; total dose 50 mg/kg): 0/5
- SW480 proliferation inhibitory action IC50 [2]: 0.66 ng/mL
- SV40 promoter inhibitory activity IC50 (SV40 promoter): >10 ng/mL
- A549 proliferation inhibitory action IC50 [3]: 0.025 ng/mL
- NFκB inhibitory activity IC50 (NFκB): 0.37 ng/mL
- HT-29 proliferation inhibitory action IC50 [4]: 0.055 ng/mL

Structure (SMILES): CCOC(=O)Oc1ccc2c3c(c4cc(OC)c(OC)cc4c2c1)CN1CCC[C@H]1[C@H]3O.Cl [Compound 28, carbonic acid ethyl ester(12aS,13S)-13-hydroxy-6,7-dimethoxy-9,10,11,12,12a,13-hexahydro-9a-aza-cyclopenta[b]triphenylene-3-yl ester hydrochloride]
- Mortality rate ([1]; total dose 25 mg/kg): 0/5
- Mortality rate ([1]; total dose 50 mg/kg): 0/5
- SW480 proliferation inhibitory action IC50 [2]: 0.65 ng/mL
- SV40 promoter inhibitory activity IC50 (SV40 promoter): >10 ng/mL
- A549 proliferation inhibitory action IC50 [3]: 0.037 ng/mL
- NFκB inhibitory activity IC50 (NFκB): 1.0 ng/mL
- HT-29 proliferation inhibitory action IC50 [4]: 0.064 ng/mL

Structure (SMILES): COc1cc2c3c(c4cc(O)ccc4c2cc1OC)[C@H](O)[C@@H]1CCCN1C3.Cl [Compound 29, (12aS,13S)-6,7-dimethoxy-9,10,11,12,12a,13-hexahydro-9a-aza-cyclopenta[b]triphenylene-2,13-diol hydrochloride]
- Mortality rate ([1]; total dose 25 mg/kg): 0/5
- Mortality rate ([1]; total dose 50 mg/kg): 0/5
- IC50 [2]: 4 ng/mL
- IC50 (SV40 promoter): > 1000 ng/mL
- IC50 [3]: 1.7 ng/mL
- IC50 (NFκB): 1.4 ng/mL
- IC50 [4]: 2.5 ng/mL

Structure (SMILES): COc1cc2c3c(c4ccc(F)cc4c2cc1OC)C[C@@H]1CCCN1C3.Cl [Compound 31, (S)-3-fluoro-6,7-dimethoxy-9,10,11,12,12a,13-hexahydro-9a-aza-cyclopenta[b]triphenylene hydrochloride]
- Mortality rate ([1]; total dose 25 mg/kg): 0/5
- Mortality rate ([1]; total dose 50 mg/kg): 0/5
- IC50 [2]: 50.2 ng/mL
- IC50 (SV40 promoter): > 1000 ng/mL
- IC50 [3]: 1.5 ng/mL
- IC50 (NFκB): 28.8 ng/mL
- IC50 [4]: 10.6 ng/mL

Structure (SMILES): COc1cc2c3c(c4ccccc4c2cc1OC)C[C@@H]1CCCN1C3.Cl [Compound 32, (S)-6,7-dimethoxy-9,10,11,12,12a,13-hexahydro-9a-aza-cyclopenta[b]triphenylene hydrochloride]
- Mortality rate ([1]; total dose 25 mg/kg): 0/5
- Mortality rate ([1]; total dose 50 mg/kg): 0/5
- IC50 [2]: 39.3 ng/mL
- IC50 (SV40 promoter): > 100 ng/mL
- IC50 [3]: 0.7 ng/mL
- IC50 (NFκB): 27.8 ng/mL
- IC50 [4]: 3.1 ng/mL

Structure (SMILES): COc1cc2c3c(c4cc(O)ccc4c2cc1OC)C[C@@H]1CCCN1C3.Cl [Compound 33, (S)-6,7-dimethoxy-9,10,11,12,12a,13-hexahydro-9a-aza-cyclopenta[b]triphenylene-2-ol hydrochloride]
- Mortality rate ([1]; total dose 25 mg/kg): 0/5
- Mortality rate ([1]; total dose 50 mg/kg): 0/5
- IC50 [2]: 10.8 ng/mL
- IC50 (SV40 promoter): > 100 ng/mL
- IC50 [3]: 0.97 ng/mL
- IC50 (NFκB): 5.3 ng/mL
- IC50 [4]: 6.4 ng/mL

Structure (SMILES): COc1cc2c3c(c4ccc(OC(C)=O)cc4c2cc1OC)C[C@@H]1CCCN1C3.Cl [Compound 34, acetic acid(S)-6,7-dimethoxy-9,10,11,12,12a,13-hexahydro-9a-aza-cyclopenta[b]triphenylene-3-yl ester hydrochloride]
- Mortality rate ([1]; total dose 25 mg/kg): 0/5
- Mortality rate ([1]; total dose 50 mg/kg): 0/5
- SW480 proliferation inhibitory action IC50 [2]: 0.042 ng/mL
- SV40 promoter inhibitory activity IC50 (SV40 promoter): >100 ng/mL
- A549 proliferation inhibitory action IC50 [3]: 0.18 ng/mL
- NFκB inhibitory activity IC50 (NFκB): 0.026 ng/mL
- HT-29 proliferation inhibitory action IC50 [4]: 0.52 ng/mL

Structure (SMILES): COC(=O)CCC(=O)Oc1ccc2c3c(c4cc(OC)c(OC)cc4c2c1)CN1CCC[C@H]1C3.Cl [Compound 36, succinic acid(S)-6,7-dimethoxy-9,10,11,12,12a,13-hexahydro-9a-aza-cyclopenta[b]triphenylene-3-yl ester methyl ester hydrochloride]
- Mortality rate ([1]; total dose 25 mg/kg): 0/5
- Mortality rate ([1]; total dose 50 mg/kg): 0/5
- SW480 proliferation inhibitory action IC50 [2]: 0.96 ng/mL
- SV40 promoter inhibitory activity IC50 (SV40 promoter): >100 ng/mL
- A549 proliferation inhibitory action IC50 [3]: 0.82 ng/mL
- NFκB inhibitory activity IC50 (NFκB): 0.64 ng/mL
- HT-29 proliferation inhibitory action IC50 [4]: 2.3 ng/mL

Structure (SMILES): COC(=O)Oc1ccc2c3c(c4cc(OC)c(OC)cc4c2c1)CN1CCC[C@H]1C3.Cl [Compound 37, carbonic acid(S)-6,7-dimethoxy-9,10,11,12,12a,13-hexahydro-9a-aza-cyclopenta[b]triphenylene-3-yl ester methyl ester hydrochloride]
- Mortality rate ([1]; total dose 25 mg/kg): 0/5
- Mortality rate ([1]; total dose 50 mg/kg): 0/5
- SW480 proliferation inhibitory action IC50 [2]: 0.68 ng/mL
- SV40 promoter inhibitory activity IC50 (SV40 promoter): >100 ng/mL
- A549 proliferation inhibitory action IC50 [3]: 0.65 ng/mL
- NFκB inhibitory activity IC50 (NFκB): 2.9 ng/mL
- HT-29 proliferation inhibitory action IC50 [4]: 1.6 ng/mL

Structure (SMILES): COc1cc2c3c(c4ccc(OC(=O)c5ccco5)cc4c2cc1OC)C[C@@H]1CCCN1C3.Cl [Compound 38, furan-2-carboxylic acid(S)-6,7-dimethoxy-9,10,11,12,12a,13-hexahydro-9a-aza-cyclopenta[b]triphenylene-3-yl ester hydrochloride]
- Mortality rate ([1]; total dose 25 mg/kg): 0/5
- Mortality rate ([1]; total dose 50 mg/kg): 0/5
- SW480 proliferation inhibitory action IC50 [2]: 0.62 ng/mL
- SV40 promoter inhibitory activity IC50 (SV40 promoter): >1000 ng/mL
- A549 proliferation inhibitory action IC50 [3]: 1.1 ng/mL
- NFκB inhibitory activity IC50 (NFκB): 0.50 ng/mL
- HT-29 proliferation inhibitory action IC50 [4]: 3.2 ng/mL

Structure (SMILES): COc1cc2c3c(c4ccc(OC(=O)c5cccnc5)cc4c2cc1OC)C[C@@H]1CCCN1C3.Cl [Compound 39, nicotinic acid(S)-6,7-dimethoxy-9,10,11,12,12a,13-hexahydro-9a-aza-cyclopenta[b]triphenylene-3-yl ester hydrochloride]
- Mortality rate ([1]; total dose 25 mg/kg): 0/5
- Mortality rate ([1]; total dose 50 mg/kg): 0/5
- SW480 proliferation inhibitory action IC50 [2]: 1.3 ng/mL
- SV40 promoter inhibitory activity IC50 (SV40 promoter): >100 ng/mL
- A549 proliferation inhibitory action IC50 [3]: 0.97 ng/mL
- NFκB inhibitory activity IC50 (NFκB): 2.2 ng/mL
- HT-29 proliferation inhibitory action IC50 [4]: 2.6 ng/mL

Source: US8569327B2, “Phenanthroindolizidine derivative and NFκB inhibitor containing same as active ingredient” (Kabushiki Kaisha Yakult Honsha, priority 2008, dated 2013)
